Data published in paper PMC9994261 (Cell, 2023).
≈ marks a conversion by molar mass, not a printed value. Where “and” joins values, the source holds several entries; their conditions need not be identical. Identical values can stand only once. Like-named read-outs stand apart in the source and are kept apart here.

Columns and labels:
[1] = system: Mtb H37Rv SEQ-9 resistant mutants; assay type: cell-based, Mycobacterium tuberculosis
Mtb clinical strains = assay: microbe, parasite or virus in culture; assay type: cell-based; conditions: Mycobacterium tuberculosis, read-out: MIC against Mtb clinical strain

SMILES: CC(=O)NC[C@H]1CN(c2ccc(N3CCOCC3)c(F)c2)C(=O)O1 [Linezolid]
- Growth inhibition (MIC80) [1]: 0.92 µM and 0.95 µM and 1.14 µM and 0.80 µM and 0.79 µM

SMILES: CC[C@H]1OC(=O)[C@H](C)[C@@H](O[C@H]2C[C@@](C)(OC)[C@@H](O)[C@H](C)O2)[C@H](C)[C@@H](O[C@@H]2O[C@H](C)C[C@H](N(C)C)[C@H]2O)[C@](C)(OC)C[C@@H](C)C(=O)[C@H](C)[C@@H](O)[C@]1(C)O [Clarithromycin]
- Growth inhibition @ 30µM ([1]; 30 µM): 55% and 70%

SMILES: CON=C1CC(C)OC(OC2C(C)CC(C)(OC(=O)NC(C)(C)CNS(=O)(=O)c3ccccc3)C(=O)C(C)C(OC(=O)CC(C)C)C(C)C(C(C)COC3OC(C)C(O)C(OC)C3OC)OC(=O)C(C)C(OC3CC(C)N(C)CC(C)O3)C2C)C1O (stereo not drawn) [SEQ-9]
- MIC (Mtb clinical strains; KMA1354-Modern): 0.9 µM (≈ 1.12 µg/mL)
- MIC (Mtb clinical strains; KMA3899-Ancient): 1.4 µM (≈ 1.74 µg/mL)
- MIC (Mtb clinical strains; KMA4244-Modern): 1.4 µM (≈ 1.74 µg/mL)
- MIC (Mtb clinical strains; KMA4439-Modern): 1.4 µM (≈ 1.74 µg/mL)
- MIC (Mtb clinical strains; KMA5282-Modern): 0.6 µM (≈ 0.746 µg/mL)
- MIC (Mtb clinical strains; KMA5319-Modern): 0.7 µM (≈ 0.87 µg/mL)

SMILES: COc1nc2ccc(Br)cc2cc1[C@@H](c1ccccc1)[C@@](O)(CCN(C)C)c1cccc2ccccc12 [BDQ, Bedaquiline]
- Growth inhibition (MIC80) [1]: 0.044 µM and 0.042 µM and 0.036 µM
